Measured values as given in US11215619B2 (priority 2019, dated 2022).

Key:
[1] = Solvatochromic studies of 4QI; type: physicochemical
Experimental: (§1) All fluorescence excitation and emission measurements were made at 25.00° C. using a PTI Alphascan-2 spectrofluorometer equipped with a 1×4 Multicell Block Peltier and temperature controller, with baseline correction and variable slit widths as specified. All fluorescence excitation spectra were recorded at the maximum emission wavelength of the fluorophore and emission spectra were recorded at the maximum excitation wavelength.
Solvatochromatic studies were completed using quartz cells (Hellma 101-QS) with a light path of 10 mm. A 100 μM stock solution of 4QI was prepared in reagent grade DMSO. Using the stock solution, 3 μM solutions of 4QI were prepared in a series of solvents: MQ water, methanol, acetonitrile, THF, chloroform and isopropyl alcohol. After mixing by inversion (×20), emission and excitation spectra for each sample were recorded as described using slit widths of 5 nm.

[2] = Photophysical characterization of 4QI (fluorescence spectrometry); type: physicochemical
Experimental: as §1
4QI-alcohol and 4QI-DMT contain the same fluorophore such that characterization of 4QI-alcohol is representative of the solvatochromic and photophysical capacity of the 4QI fluorophore. […] Excitation and emission in the visible region as opposed to the ultraviolet (UV) region is favorable because the dye can be excited using a visible lamp rather than a more expensive UV lamp.

[3] = Kinetic studies of 4QI under oligonucleotide deprotection conditions; type: physicochemical
Experimental: Recall that standard conditions for oligonucleotide deprotection involve heating to 55° C. for 4 h in ammonium hydroxide (Table 3). […] Therefore, all mTBA were deprotected under UltraMild conditions.

[4] = Photostability of 4QI within a DNA helix; type: physicochemical; conditions: 6-month period, aqueous buffer pH 7.4
From the text: The 4QI dye was attached to a glycerol backbone and converted into a phosphoramidite for site-specific incorporation into DNA using solid phase DNA synthesis.

OTABA [5] = experiment: Fluorescent titration of dye binding to OTABA; conditions: for Kd: apparent, dye binding to OTABA; for λem / λex: dye bound to OTABA; for λex (value in parentheses): footnote not given, line below the bound value
Experimental: Dye interaction with OTABA and subsequent displacement by OTA was initially investigated using fluorescence spectroscopy (FIG. 17) in the previously optimized OTA binding buffer. (Fadock et al., 2017) Additions of OTABA (up to 1.5 equiv.) to the dye (6 μM) caused dose-dependent increases in ligand emission at 488 nm for ThT (240-fold increase at 1.5 equiv. OTABA, FIG. 17a), 605 nm for the 4QI (42-fold, FIG. 17b) and 640 nm for BtC (8-fold, FIG. 17c).

OTABA [6] = experiment: Dye displacement from OTABA mediated by OTA (label-free aptasensor); type: binding; conditions: for Kd: apparent, OTA binding to OTABA from dye displacement, 0.5 μM OTABA; for % D (6 → 0.5 μM): OTA up to 1.5 equiv
Experimental: For dye displacement from the aptamer mediated by OTA, a 2:1 dye:OTABA mixture (12:6 μM) was treated with aliquots of OTA up to 1.5 equiv. (9 μM). Under these conditions, ThT was poorly displaced from the aptamer, displaying only a 6% drop in emission intensity (FIG. 17d). […] Significant differences in the ability of OTA to displace the dyes from the aptamer was not anticipated. Furthermore, given the relative binding affinities of the dyes for OTABA, ThT was expected to display the greatest ease of displacement. Clearly the ability of OTA to displace the dyes from the aptamer had little to do with the dye aptamer binding affinity.
To determine the analytical potential of the dye displacement assay, the 2:1 dye:OTABA starting mixture was optimized and the OTA titrations were repeated using 0.5 μM OTABA in the presence of 1 μM dye. […] Additions of OTA up to 1.5 equiv (0.75 μM) caused 93% BtC displacement, as evidenced by the loss of emission intensity for the aptamer-bound BtC at 640 nm, coupled with the loss of the ET band at 256 nm for BtC stacking with the G-tetrad of the folded aptamer.
From the OTA titrations involving hemicyanine dye displacement (4QI and BtC), a limit of detection (LoD)˜15 nM (6 ng/mL) and a limit of quantification (LoQ)˜45-47 nM (˜18 ng/mL) were determined (R^2=0.95-0.99). In contrast, an LoD of 73 nM (29 ng/mL) and LoQ of 222 nM (89 ng/mL, R^2=0.85) was determined from the ThT displacement data.

[7] = type: physicochemical; conditions: 6 μM oligonucleotide, 10% K+ buffer
thrombin = thrombin (Homo sapiens, UniProt P00734); conditions: isothermal titration calorimetry (Pagano et al. 2008); cited from earlier work
[8] = first value: 6 μM OTABA, 12 μM dye
[9] = second value: 0.5 μM OTABA, 1 μM dye

Compound | Kd (OTABA [5]) | λem (OTABA [5]) | λex (OTABA [5]) | λex (value in parentheses) (OTABA [5]) | Kd (OTABA [6]; 1 μM dye) | % D (6 → 0.5 μM) (OTABA [6]; [8]) | % D (6 → 0.5 μM) (OTABA [6]; [9]) | other results
C[n+]1ccc(/C=C/c2cn(CCCO)c3ccccc23)c2ccccc21.[I-] [4QI, 4-(2-(1-(3-hydroxypropyl)-1H-indol-3-yl)vinyl)-1-methylquinolin-1-ium iodide] | 2500 nM | 605 nm | 532 nm | (493) nm | 356 nM | 28% | 47% | λex max ([1]; Acetonitrile): 494 nm; λex max ([1]; H2O): 486 nm; λex max ([1]; Isopropyl-alcohol): 523 nm; λex max ([1]; Methanol): 512 nm; λex max ([1]; THF): 514 nm; Stokes shift [2]: 104 nm; extinction coefficient [2]: 26,660 L/(mol·cm); stokes shift [2]: 90 nm; fluorescence emission ([2]; following excitation at 500 nm): 590 nm; λem maxima ([2]; free in H2O): 580 nm; λex maxima ([2]; free in H2O): 520 nm; time to complete bleaching of 4QI absorbance ([3]; Standard deprotection conditions): ≤ 6.5 h; time to complete bleaching of 4QI absorbance ([3]; UltraFast deprotection conditions): ≤ 0.05 h; decrease of fluorescence intensity ([3]; UltraMild conditions, 17-hour kinetic study): 11%; photostability [4]: photostable
CCN(CC)c1ccc2cc(/C=C/c3sc4ccccc4[n+]3C)c(=O)oc2c1 [BtC] | 3200 nM | 640 nm | 580 nm | (549) nm | 112 ± 8.9 nM | 52% | 93% | –
Cc1ccc2c(c1)sc(-c1ccc(N(C)C)cc1)[n+]2C [ThT, Thioflavin T] | 10900 nM | 488 nm | 448 nm | (412) nm | 292 nM | 6% | 23% | –
TBA-15: Native thrombin binding aptamer 5′-GGTTGGTGTGGTTGG | – | – | – | – | – | – | – | Tm GQ [7]: 53.5 °C; Kd (thrombin): 330 nM
